The subject of assay [1] is A549, DU-145, KB, HCT-8 cancer cell lines. Briefly: Cytotoxicity screen, stated over the panel of four cancer cell lines. The assay is classed as cell-based.
The next assay relates to KB (nasopharyngeal). Briefly: Cytotoxicity. Type of assay: cell-based. Particulars: KB cell line.
Where [2] appears, read: read-out: GI50 (all tested cancer cell lines).

Like-named read-outs stand apart in the source and are kept apart here.

As a reminder, the GI50 is the concentration at which growth is held to half of that of the control.

For the molecule `COc1ccc2c3c(c4cc(OC)c(OC)cc4c2c1)C[C@H]1CCOCN1C3` [Compound 13, (S)-12-Oxa-cryptopleurine], the GI50 in assay [1] (setting [2]) is > 1000 nM.
With `COc1ccc2c3c(c4cc(OC)c(OC)cc4c2c1)C[C@H]1COCCN1C3` [Compound 11, (S)-13-Oxa-cryptopleurine], the “GI50 KB” value with KB (nasopharyngeal) is 37 ± 9 nM.
Still for that read-out and setting: the result for `COc1ccc2c3c(c4cc(OC)c(OC)cc4c2c1)C[C@H]1CCCCN1C3` [crypto-pleurine, R-cryptopleurine, reference compound] reads 1.51 ± 0.33 nM; that for `COc1ccc2c3c(c4cc(OC)c(OC)cc4c2c1)C[C@H]1CCCCCN1C3` [Compound 15], 102 ± 19 nM.
Consider `COc1ccc2c3c(c4cc(OC)c(OC)cc4c2c1)C[C@H]1CN(c2ccccc2)CN1C3` [Compound 3f], for which the GI50 in assay [1] (read-out: average GI50) was > 20000 nM.
As for `COc1ccc2c3c(c4cc(OC)c(OC)cc4c2c1)C[C@H]1CCN(c2ccccc2)CN1C3` [Compound 10b], in assay [1] (setting [2]), the GI50 was > 20000 nM.
The same measure, in the same setting: the result for `COc1ccc2c3c(c4cc(OC)c(OC)cc4c2c1)C[C@H]1CCN(Cc2ccccc2)CN1C3` [Compound 10d] reads > 20000 nM.
The same measure, in the same setting: the result for `COc1ccc2c3c(c4cc(OC)c(OC)cc4c2c1)C[C@@H]1CCOCN1C3` [Compound 14, (R)-12-Oxa-cryptopleurine] reads > 1000 nM.
On to `COc1ccc2c3c(c4cc(OC)c(OC)cc4c2c1)C[C@H]1CCCN1C3` [R-antofine, reference compound], for which the “GI50 KB” value in the assay on KB (nasopharyngeal) was found to be 36 ± 8 nM.
Same read-out and setting: the result for `COc1ccc2c3c(c4cc(OC)c(OC)cc4c2c1)C[C@H]1CCOCCN1C3` [Compound 16] reads 68 ± 10 nM.

(Values after publication PMC3141083 (Journal of medicinal chemistry, 2011).)
